Results reported in publication PMC8327158, “PEGylated AdipoRon derivatives improve glucose and lipid metabolism under insulinopenic and high-fat diet conditions” (Journal of Lipid Research, 2021).
Converted amounts (≈) assume the structure as drawn.

Assays:
[1] = Plasma pharmacokinetics after IP dosing; assay type: in vivo, C57BL/6J mice; details: IP 20 mg/kg; for Cmax: male, mouse, plasma, 8-week-old C57BL/6J mice, mean ± SEM
Description: (§1) Two groups of male C57BL/6J mice (21 mice/group) at 8 weeks of age were dosed IP with 20 mg/kg AdipoRon or AdipoRonPEG5, 0.2 ml/mouse formulated as 10% DMSO/10% Cremophor/20% PEG400/60% PBS. Whole blood was harvested at seven time points post IP dosing, 10 min, 30 min, 90 min, 180 min, 360 min, 960 min, and 1,440 min. Three mice were euthanized at each time point. Plasma was processed from whole blood by centrifugation of the ACD-treated blood for 10′ at 10,000 rpm in a standard centrifuge. Additionally, the liver was harvested. The tissues were weighed and snap frozen in liquid nitrogen.
To quantify plasma drug concentration and PK, we prepared standards by adding 98 μl blank plasma (BioIVT) to an eppendorf. These were spiked with 2 μl of initial standard. For QCs, we added 98.8 μl blank plasma to Eppendorf, spiked with 1.2 μl of initial standard. For samples, we mixed 100 μl plasma with 200 μl of methanol containing 0.15% formic acid and 75 ng/ml IS (IS final conc. = 50 ng/ml). The samples were vortexed 15 s, incubated at room temp for 10′, and spun 2× 13,200 rpm in a standard microcentrifuge. The supernatant was then analyzed by LC-MS/MS.

[2] = Liver drug concentration and bioavailability after IP dosing; assay type: in vivo, C57BL/6J mice; details: IP 20 mg/kg; for liver Cmax: 8-week-old C57BL/6J mice, mean ± SEM
Description: as §1
To measure liver drug concentration and bioavailability, we prepared standards by adding 98 μl blank liver homogenate to an Eppendorf, spiked with 2 μl of initial standard. For QCs, we added 98.8 μl blank liver homogenate to an Eppendorf, spiked with 1.2 μl of initial standard. For samples, we mixed 100 μl liver homogenate with 200 μl of methanol containing 0.15% formic acid and 75 ng/ml IS (IS final conc. = 50 ng/ml). The samples were vortexed 15 s, incubated at room temp for 10′, and spun 2× 13,200 rpm in a standard microcentrifuge. The supernatant was then analyzed by LC-MS/MS.

[3] = design: method as in https://www.caymanchem.com/pdfs/15941.pdf; details: ref https://www.caymanchem.com/pdfs/15941.pdf; cited from earlier work
[4] = design: method as in PMID 24172895; details: oral administration at 50 mg kg−1 body weight; cited from earlier work
STZ-treated Adn−/− mice = experiment: OGTT and triglyceride tolerance test in STZ-treated adiponectin knockout mice; assay type: in vivo, mouse
Description: (§2) For oral glucose tolerance test (OGTT), mice were fasted for 4–6 h and subjected to an oral gavage of dextrose (2 mg/g body weight). Tail blood was collected at 0, 15, 30, 60, and 120 min and prepared for serum and assayed for glucose and insulin. For insulin tolerance test (ITT), insulin (0.75 U/kg Humulin R; Eli Lilly, Indianapolis, IN) was administered under fed condition. Serum glucose level was measured at 0, 15, 30, 60, and 90 min time point. Triglyceride tolerance test (TGTT) was initiated by oral gavage of 20% Intralipid (10 μl/g BDW, l141-100 ml, Sigma), and serum was collected at 0, 1, 1.5, 3, and 6 h for triglyceride assay. Glucose, insulin, and triacylglyceride levels were measured using an oxidase-peroxidase assay (Sigma P7119), insulin ELISA (Crystal Chem, Elk Grove village, IL, #15596018), and Infinity Triglycerides Reagent (Thermo Fisher Scientific TR22421).
Streptozotocin (STZ; Sigma S1030) was dissolved by 0.05 M citrate buffer (final; 20 mg/ml). Following 6 h fasting, mice received a single intraperitoneal injection of streptozotocin (200 mg/kg) to induce insulinopenic conditions.

HFD-fed wild-type mice = experiment: Food intake, body weight, ITT and OGTT in mice on HFD for 7 months; assay type: in vivo, mouse; details: HFD 7 months, 5 mg/kg twice a day for 5 days
Description: as §2
(§3) Six-week-old wild-type male mice were fed HFD for 4 weeks or 7 months In total, 5 mg/Kg of PBS, Adiporon, AdipoRonPEG5, AdipoRonPEG6HTL were injected twice a day for 5 days. After 5 days of treatment, systemic test is performed, and serum (Before and after treatment), subcutaneous, epididymal, liver, heart samples were harvested for qPCR and sphingolipid analysis.

wild-type mice = experiment: Cold exposure (4°C): body temperature, scWAT histology, qPCR; assay type: in vivo, mouse
Description: In total, 5 mg/Kg of PBS and AdipoRonPEG5 were injected twice a day for 5 days at room temperature followed by housing in the cold chamber (4°C) for 7 days. Body temperature was measured at 0, 1, 2, 3, 4, and 5 h time point at the first day of cold exposure. In total, 5 mg/Kg of PBS and AdipoRonPEG5 were injected once a day for 7 days after cold exposure followed by harvesting tissues for qPCR analysis.

HFD-fed mice = experiment: qPCR gene expression in pancreas, BAT and scWAT of HFD mice; assay type: in vivo, mouse
Description: Total RNA was extracted with the RNeasy Mini kit (Qiagen #74106) for the pancreas or Trizol (Invitrogen #15596018) for the liver and adipose tissue. cDNA was synthesized with iScript cDNA Synthesis Kit (Bio-Rad #170-8891). Quantitative real-time PCR (qPCR) was performed with the Powerup SYBR Green PCR master mix (Applied Biosystems # A25742) on Quantistudio 6 Flex Real-Time PCR System (Applied Biosystems #4485694). Primer sequences for qPCR are listed in supplemental Table S2.
as §3

Structure (SMILES) | Cmax [1] [ng/mL] | liver Cmax [2] [ng/mL] | solubility in neutral phosphate buffer containing >30% DMSO [3] [mg/mL] | maximal plasma concentration [4] [µM] | increase in maximal plasma concentration compared with AdipoRon [1] | higher bioavailability in the liver than AdipoRon [2] | blood TG levels in triglyceride tolerance test (STZ-treated Adn−/− mice) | glucose levels in OGTT (STZ-treated Adn−/− mice) | blood glucose levels in ITT (HFD-fed wild-type mice) | blood glucose levels in OGTT (HFD-fed wild-type mice) | blood insulin levels in OGTT (HFD-fed wild-type mice) | food intake or body weight (HFD-fed wild-type mice) | subcutaneous adipose tissue histology after cold exposure (wild-type mice; 5 mg/kg, 4°C) | body temperature after acute cold exposure (wild-type mice; 5 mg/kg, 5 days treatment, 4°C) | T-cadherin (CDH13) expression (wild-type mice; scWAT and BAT after cold exposure, qPCR) | Cpt-1a expression (HFD-fed mice; BAT) | Prdm16 expression (HFD-fed mice; BAT) | fibrosis-related genes (Col1a1, Col3a1, Fn1) and Tgfb1 (HFD-fed mice; subcutaneous adipose tissue) | genes maintaining the functional state of pancreatic β-cells (HFD-fed mice; whole pancreas lysate)
O=C(COc1ccc(C(=O)c2ccccc2)cc1)NC1CCN(Cc2ccccc2)CC1 [AdipoRon] | 2170 ± 196 | 3169.30 ± 1437.09 | 0.25 (≈ 583 µM) | 11.8 |  |  |  |  |  |  |  |  |  |  |  |  |  |  | 
O=C(COc1ccc(C(=O)c2ccccc2)cc1)NC1CCN(Cc2ccc(OCCOCCOCCOCCOCCO)cc2)CC1 [AdipoRonPEG5] | 6510 ± 685 | 25509.73 ± 1436.44 |  |  | threefold | eightfold | not altered | improved the glucose levels | significant reduction | not altered | reduction of blood insulin levels | no significant impact | resembling beige adipocytes | significantly higher body temperature | upregulated expression | increased expression | significant upregulation | lowered | did not detect a significant upregulation
